From PubChem BioAssay AID1845216 (Molecular Pharmacology Branch, DTP, NCI, 2023)

Test system: SW 982 tumor spheroid viability
Assay: Anticancer human tumor SW 982 cell line growth inhibition;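 note: spheroids exposed to compound for 7 days before readout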
Conditions: spheroids with HUVEC and MSC; for IC50: curve of first compound; for viability, T/C: stronger effect = lower value
Description: Multicellular complex tumor spheroid response to DNA repair inhibitors in combination with DNA-damaging drugs
This study explores the anticancer activities of DNA-damaging drugs and inhibitors of DNA damage repair, both as single agents and in combinations. Complex tumor spheroids comprised of malignant cells, endothelial cells and mesenchymal stem cells served as an in vitro model for human solid tumors. This model system incorporates physiologically relevant features and patient-derived or established malignant cell lines with clinically relevant genetic alterations from many tumor types. Twenty-six patient-derived or established malignant cell lines were evaluated representing sarcoma, melanoma, small cell lung cancer (SCLC), non-small cell lung cancer (NSCLC), as well as bladder, ovarian and pancreatic cancers. The concentration ranges selected for each drug and investigational agent were based upon clinically achievable concentrations if the clinical Cmax of the agent was known.
Compounds. The drugs and compounds olaparib (NSC753686), talazoparib (NSC767125), berzosertib (NSC777718), elimusertib (NSC800525), nedisertib (NSC802822), VX-984 (NSC792969), AZD-1390 (NSC803789), temozolomide (NSC362856), topotecan (NSC609699), trabectedin (NSC813783), staurosporine (NSC755774), and gemcitabine (NSC613327) were obtained from the National Cancer Institute (NCI) Developmental Therapeutics Program Chemical Repository. The FDA-approved anticancer drug set is available from the Developmental Therapeutics Program at https://dtp.cancer.gov/organization/dscb/obtaining/available_plates.htm. […] The stock solutions were prepared in dimethyl sulfoxide (DMSO, Sigma-Aldrich, St. Louis, MO, cat. D2650) at 400-fold the tested concentration and stored at -70 degrees C. Prior to their use, the stock solutions were diluted in fresh medium and the final DMSO concentration in the assay was 0.25% (v/v). All drugs and investigational agents were tested over a range starting from a high concentration at or near the clinical Cmax and decreasing in half-log increments. If the clinical Cmax for an agent had not been determined, the highest concentration tested was 10 microM.
Cell Lines. The patient-derived cancer cell (PDC) lines: 156681-154-R-J1-PDC, 283228-195-R-J1-PDC, 287954-098-R-J1-PDC, 292921-168-R-J2-PDC, 349418-098-R-PDC, 425362-245-T-J1-PDC, 556581-035-R-J1-PDC, and BL0293-F563-PDC were received from the NCI Patient-Derived Models Repository (PDMR, https://pdmr.cancer.gov). The established cell lines HS-SY-2 (RRID:CVCL_8719), MPNST, and SYO-1 (RRID:CVCL_7146) were obtained from the Sloan Kettering Institute. The alveolar soft parts sarcoma cell line ASPS-1 (RRID:CVCL_S738) was established at the NCI and grown from internal seed stocks. The following established cell lines were purchased from the American Type Culture Collection (ATCC, Manassas, VA): G-401 (ATCC, cat. CRL-1441, RRID:CVCL_0270), SW982 (ATCC, cat. HTB-93, RRID:CVCL_1734), VA-ES-BJ (ATCC, cat. CRL-2138, RRID:CVCL_1785), NCI-H719 (ATCC, cat. CRL-5837, RRID:CVCL_1582), NCI-H196 (ATCC, cat. CRL-5823, RRID:CVCL_1509), NCI-H841 (ATCC, cat. CRL-5845, RRID:CVCL_1595), NCI-H1618 (ATCC, cat. CRL-5879, RRID:CVCL_1480), NCI-H1876 (ATCC, cat. CRL-5902, RRID:CVCL_1503), DMS 114 (ATCC, cat. CRL-2066; RRID:CVCL_1174), NCI-H211 (ATCC, cat. CRL-5824; RRID:CVCL_1529), and SW 1271 (ATCC, cat. CRL-2177, RRID:CVCL_1716). The small cell lung cancer cell line COR-L88 was purchased from Sigma-Aldrich (cat. 92031917-1VL, RRID:CVCL_1141). The non-small cell lung cancer cell lines NCI-H226 (RRID:CVCL_1544) and NCI-H322M (RRID:CVCL_1557) were established at the NCI and grown from internal seed stocks. Pooled donor human umbilical vein endothelial cells (HUVEC, Lonza, cat. CC-2519) and human mesenchymal stem cells (hMSC, Lonza, cat. PT-2501) were purchased from Lonza (Walkersville, MD).
Cell Culture. All cells were maintained in an incubator at 37 degrees C and 5% CO2 with 95% humidity. […]

[1] = second compound 0.003 µM, first compound 0.00949 µM
[2] = second compound 0.003 µM, first compound 0.03 µM
[3] = second compound 0.003 µM, first compound 0.0949 µM
[4] = second compound 0.003 µM, first compound 0.3 µM
[5] = second compound 0.003 µM, first compound 0.949 µM
[6] = second compound 0.003 µM, first compound 3 µM
[7] = second compound 0.00949 µM, first compound 0.00949 µM
[8] = second compound 0.00949 µM, first compound 0.03 µM
[9] = second compound 0.00949 µM, first compound 0.0949 µM
[10] = second compound 0.00949 µM, first compound 0.3 µM
[11] = second compound 0.00949 µM, first compound 0.949 µM
[12] = second compound 0.00949 µM, first compound 3 µM
[13] = second compound 0.03 µM, first compound 0.00949 µM
[14] = second compound 0.03 µM, first compound 0.03 µM
[15] = second compound 0.03 µM, first compound 0.0949 µM
[16] = second compound 0.03 µM, first compound 0.3 µM
[17] = second compound 0.03 µM, first compound 0.949 µM
[18] = second compound 0.03 µM, first compound 3 µM
[19] = second compound 0.0949 µM, first compound 0.00949 µM
[20] = second compound 0.0949 µM, first compound 0.03 µM
[21] = second compound 0.0949 µM, first compound 0.0949 µM
[22] = second compound 0.0949 µM, first compound 0.3 µM
[23] = second compound 0.0949 µM, first compound 0.949 µM
[24] = second compound 0.0949 µM, first compound 3 µM
[25] = second compound 0.3 µM, first compound 0.00949 µM
[26] = second compound 0.3 µM, first compound 0.03 µM
[27] = second compound 0.3 µM, first compound 0.0949 µM
[28] = second compound 0.3 µM, first compound 0.3 µM
[29] = second compound 0.3 µM, first compound 0.949 µM
[30] = second compound 0.3 µM, first compound 3 µM

SMILES | IC50 (second compound 0.003 µM) [µM] | IC50 (second compound 0.00949 µM) [µM] | IC50 (second compound 0.03 µM) [µM] | IC50 (second compound 0.0949 µM) [µM] | IC50 (second compound 0.3 µM) [µM] | viability, T/C [3] [%] | viability, T/C [4] [%] | viability, T/C [5] [%] | viability, T/C [6] [%] | viability, T/C [9] [%] | viability, T/C [10] [%] | viability, T/C [11] [%] | viability, T/C [12] [%] | viability, T/C [15] [%] | viability, T/C [16] [%] | viability, T/C [17] [%] | viability, T/C [18] [%] | viability, T/C [21] [%] | viability, T/C [22] [%] | viability, T/C [23] [%] | other results
CNCc1ccc(-c2cc(-c3nc(-c4ccc(S(=O)(=O)C(C)C)cc4)cnc3N)on2)cc1 + CC[C@@]1(O)C(=O)OCc2c1cc1n(c2=O)Cc2cc3c(CN(C)C)c(O)ccc3nc2-1 | 0.207 | 0.207 | 0.18 | 0.134 | 0.0486 | 66.1 | 36.4 | 33.8 | 11.2 | 69.5 | 37.8 | 28.6 | 12.7 | 61 | 37.7 | 32.4 | 17.5 | 57.2 | 31.8 | 25.1 | viability, T/C [1]: 96.2%; viability, T/C [2]: 91%; viability, T/C [7]: 81.5%; viability, T/C [8]: 85.8%; viability, T/C [13]: 80%; viability, T/C [14]: 79.1%; viability, T/C [19]: 83.3%; viability, T/C [20]: 75.9%; viability, T/C [24]: 12.4%; viability, T/C [25]: 53.1%; viability, T/C [26]: 57.2%; viability, T/C [27]: 45.5%; viability, T/C [28]: 23.8%; viability, T/C [29]: 20.2%; viability, T/C [30]: 6.34%
Cn1ncnc1[C@H]1c2n[nH]c(=O)c3cc(F)cc(c23)N[C@@H]1c1ccc(F)cc1 + CC[C@@]1(O)C(=O)OCc2c1cc1n(c2=O)Cc2cc3c(CN(C)C)c(O)ccc3nc2-1 | > 3 | > 3 | > 3 | 1.64 | < 0.00949 | 83.4 | 82.4 | 86.5 | 64.9 | 82.5 | 84.8 | 92.1 | 62.9 | 70.6 | 73.5 | 62 | 57.7 | 60.9 | 59.5 | 58.2 | viability, T/C [1]: 93.5%; viability, T/C [2]: 83.8%; viability, T/C [7]: 91.5%; viability, T/C [8]: 81.9%; viability, T/C [13]: 70.7%; viability, T/C [14]: 73.7%; viability, T/C [19]: 60.6%; viability, T/C [20]: 56%; viability, T/C [24]: 40.9%; viability, T/C [25]: 43.5%; viability, T/C [26]: 45.4%; viability, T/C [27]: 41.9%; viability, T/C [28]: 41.9%; viability, T/C [29]: 37.3%; viability, T/C [30]: 25.1%
O=C(c1cc(Cc2n[nH]c(=O)c3ccccc23)ccc1F)N1CCN(C(=O)C2CC2)CC1 + CC[C@@]1(O)C(=O)OCc2c1cc1n(c2=O)Cc2cc3c(CN(C)C)c(O)ccc3nc2-1 | 23.7 | 22.5 | 17.7 | 10.5 | < 0.0949 | 83.3 | 80.5 | 84.1 | 78.9 | 85.6 | 83.8 | 87.1 | 78 | 72.6 | 76.3 | 81.8 | 75.8 | 63.6 | 66.3 | 59.7 | viability, T/C (second compound 0.003 µM, first compound 9.49 µM): 66.6%; viability, T/C (second compound 0.003 µM, first compound 30 µM): 45.7%; viability, T/C (second compound 0.00949 µM, first compound 9.49 µM): 73.7%; viability, T/C (second compound 0.00949 µM, first compound 30 µM): 42.2%; viability, T/C (second compound 0.03 µM, first compound 9.49 µM): 60.5%; viability, T/C (second compound 0.03 µM, first compound 30 µM): 41.1%; viability, T/C [24]: 60.2%; viability, T/C (second compound 0.0949 µM, first compound 9.49 µM): 49.6%; viability, T/C (second compound 0.0949 µM, first compound 30 µM): 39.4%; viability, T/C [27]: 36.2%; viability, T/C [28]: 43.4%; viability, T/C [29]: 43.3%; viability, T/C [30]: 39.6%; viability, T/C (second compound 0.3 µM, first compound 9.49 µM): 31.1%; viability, T/C (second compound 0.3 µM, first compound 30 µM): 17.6%
